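A five-concentration, 48-hour dose response in 96-well plates underlies each endpoint, interpolated linearly between surrounding concentrations. TGI is the concentration that stops growth completely.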
What was measured:
Assay in all cases: NCI anticancer screen, dose series, 48 h
[1] = system: MOLT-4 leukemia
[2] = system: HCT-15 colon
[3] = system: UACC-62 melanoma
[4] = system: SNB-19 CNS
[5] = system: SF-268 CNS
[6] = system: MALME-3M melanoma
[7] = system: HCT-116 colon
[8] = system: KM12 colon
[9] = system: SF-539 CNS
[10] = system: ACHN renal
[11] = system: SR leukemia
[12] = system: SK-OV-3 ovarian
[13] = system: MDA-MB-231 breast
[14] = system: U251 CNS
[15] = system: CCRF-CEM leukemia
[16] = system: MDA-MB-435
[17] = system: COLO 205 colon
[18] = system: RPMI-8226 leukemia
[19] = system: OVCAR-8 ovarian
[20] = system: OVCAR-5 ovarian
[21] = system: SW-620 colon
[22] = system: SK-MEL-28 melanoma
[23] = system: HCC-2998 colon
[24] = system: T-47D breast
[25] = system: A549 NSCLC
[26] = system: UACC-257 melanoma
[27] = system: OVCAR-4 ovarian
[28] = system: RXF 393 renal
[29] = system: UO-31 renal
[30] = system: SN12C renal
[31] = system: PC-3 prostate
[32] = system: 786-0 renal
[33] = system: K-562 leukemia
[34] = system: NCI/ADR-RES ovarian
[35] = system: NCI-H460 lung
[36] = system: HOP-62 NSCLC
[37] = system: A498 renal
[38] = system: CAKI-1 renal
[39] = system: DU-145 prostate
[40] = system: NCI-H23 lung
[41] = system: M14 melanoma
[42] = system: SF-295 CNS
[43] = system: OVCAR-3 ovarian
[44] = system: SK-MEL-2 melanoma
[45] = system: HL-60(TB) leukemia
[46] = system: NCI-H522 lung
[47] = system: BT-549 breast
[48] = system: HT29 colon
[49] = system: HOP-92 NSCLC
[50] = system: MCF7 breast
[51] = system: IGROV1 ovarian
[52] = system: MDA-N
[53] = system: EKVX NSCLC
[54] = system: NCI-H226 lung

Measured: TGI

CC1(C)COC(c2ccccc2-c2ccccc2)=N1
> 100 µM: [1] | [2] | [3] | [4] | [5] | [6] | [7] | [8] | [9] | [10] | [11] | [12] | [13] | [14] | [15] | [16] | [17] | [18] | [19] | [20] | [21] | [22] | [23] | [24] | [25] | [26] | [27] | [28] | [29] | [30] | [31] | [32] | [33] | [34] | [35] | [36] | [37] | [38] | [39] | [40] | [41] | [42] | [43] | [44] | [45] | [46] | [47] | [48] | [49] | [50] | [51] | [52] | [53] | [54]

— PubChem BioAssay (NCI)
